Measurements as given in publication PMC10540603 (Biochemical and biophysical research communications, 2022).
Positions count from the first letter of the chain named.

Assays:
[1] = target: T1, CquiOrco (Culex quinquefasciatus, UniProt Q309I4); test: two-electrode voltage clamp, Xenopus oocytes; assay type: cell-based; details: agonist; coreceptor expressed alone; pH 7.6
T1 sequence (Q309I4 1-480): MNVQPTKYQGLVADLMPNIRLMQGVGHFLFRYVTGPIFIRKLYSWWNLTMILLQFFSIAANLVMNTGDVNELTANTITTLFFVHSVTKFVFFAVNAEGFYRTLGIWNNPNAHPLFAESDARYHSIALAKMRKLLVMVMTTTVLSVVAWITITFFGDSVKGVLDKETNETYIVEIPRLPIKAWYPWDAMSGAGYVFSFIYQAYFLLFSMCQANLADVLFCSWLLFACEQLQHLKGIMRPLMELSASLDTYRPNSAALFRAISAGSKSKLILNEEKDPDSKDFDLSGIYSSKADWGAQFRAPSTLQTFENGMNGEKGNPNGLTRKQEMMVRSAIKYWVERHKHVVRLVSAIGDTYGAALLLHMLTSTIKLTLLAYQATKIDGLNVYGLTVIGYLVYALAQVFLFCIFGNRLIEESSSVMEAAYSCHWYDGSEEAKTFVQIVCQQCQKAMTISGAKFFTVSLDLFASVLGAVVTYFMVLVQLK

[2] = target: T2, CquiOR32/CquiOrco (Culex quinquefasciatus, UniProt A0A0K0KUF8); test: two-electrode voltage clamp, Xenopus oocytes; assay type: cell-based; details: 1 mM source dose, -80 mV, pH 7.6
T2 sequence (A0A0K0KUF8 1-397): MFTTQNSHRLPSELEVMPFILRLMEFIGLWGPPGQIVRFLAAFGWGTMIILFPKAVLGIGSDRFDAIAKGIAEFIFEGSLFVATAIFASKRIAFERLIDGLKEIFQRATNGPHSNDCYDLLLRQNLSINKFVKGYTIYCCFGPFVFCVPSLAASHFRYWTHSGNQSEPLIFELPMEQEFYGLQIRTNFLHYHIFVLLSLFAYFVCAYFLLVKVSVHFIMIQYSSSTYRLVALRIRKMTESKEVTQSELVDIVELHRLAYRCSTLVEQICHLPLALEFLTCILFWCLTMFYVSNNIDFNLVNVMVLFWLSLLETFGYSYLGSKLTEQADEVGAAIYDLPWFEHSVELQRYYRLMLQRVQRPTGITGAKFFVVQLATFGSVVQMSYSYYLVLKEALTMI
T2 sequence (UPI0018E3CDA7 1-480 partner): T1 sequence (Q309I4 1-480) with K267E, V399I

CCn1c(SCC(=O)Nc2ccc(C(C)C)cc2)nnc1-c1ccncc1 [OLC12, 2-{[4-Ethyl-5-(4-pyridinyl)-4H-1,2,4-triazol-3-yl]sulfanyl}-N-(4-isopropylphenyl)acetamide]
two-electrode voltage clamp, Xenopus oocytes [1]: CquiOrco-expressing oocytes generated inward currents when challenged with OLC12

CC12CCC(C1)C(C)(C)C2=O (stereo not drawn) [fenchone]
two-electrode voltage clamp, Xenopus oocytes ([2]; inhibitor, outward currents): more prominent than the outward currents elicited by fenchone and eucalyptol

COC(=O)c1ccccc1O [methyl salicylate]
two-electrode voltage clamp, Xenopus oocytes ([2]; agonist, inward currents): Methyl salicylate-elicited inward currents recorded with CquiOR32/CquiOrco-expressing oocytes
